Test results: ChEMBL document CHEMBL3879909, “Piperidin-4-yl azetidine derivatives as JAK1 inhibitors” (2014)

Tests used:
[1] = species on record: Homo sapiens; experiment: Selectivity ratio of IC50 for human N-terminal His-tagged JAK2 catalytic domain (828 to 1132 residues) to IC50 for human N-terminal His-tagged JAK1 catalytic domain (837 to 1142 residues)
[2] = target: Tyrosine-protein kinase JAK1 (Homo sapiens, UniProt P23458); experiment: Inhibition of human N-terminal His-tagged JAK1 catalytic domain (837 to 1142 residues) expressed in baculovirus infected insect cells assessed as decrease in phosphorylation of biotinylated peptide substrate after 1 hr in presence of 1 mM ATP by HTRF method
Chain of Tyrosine-protein kinase JAK1 (P23458 whole entry, the tested form may be a part): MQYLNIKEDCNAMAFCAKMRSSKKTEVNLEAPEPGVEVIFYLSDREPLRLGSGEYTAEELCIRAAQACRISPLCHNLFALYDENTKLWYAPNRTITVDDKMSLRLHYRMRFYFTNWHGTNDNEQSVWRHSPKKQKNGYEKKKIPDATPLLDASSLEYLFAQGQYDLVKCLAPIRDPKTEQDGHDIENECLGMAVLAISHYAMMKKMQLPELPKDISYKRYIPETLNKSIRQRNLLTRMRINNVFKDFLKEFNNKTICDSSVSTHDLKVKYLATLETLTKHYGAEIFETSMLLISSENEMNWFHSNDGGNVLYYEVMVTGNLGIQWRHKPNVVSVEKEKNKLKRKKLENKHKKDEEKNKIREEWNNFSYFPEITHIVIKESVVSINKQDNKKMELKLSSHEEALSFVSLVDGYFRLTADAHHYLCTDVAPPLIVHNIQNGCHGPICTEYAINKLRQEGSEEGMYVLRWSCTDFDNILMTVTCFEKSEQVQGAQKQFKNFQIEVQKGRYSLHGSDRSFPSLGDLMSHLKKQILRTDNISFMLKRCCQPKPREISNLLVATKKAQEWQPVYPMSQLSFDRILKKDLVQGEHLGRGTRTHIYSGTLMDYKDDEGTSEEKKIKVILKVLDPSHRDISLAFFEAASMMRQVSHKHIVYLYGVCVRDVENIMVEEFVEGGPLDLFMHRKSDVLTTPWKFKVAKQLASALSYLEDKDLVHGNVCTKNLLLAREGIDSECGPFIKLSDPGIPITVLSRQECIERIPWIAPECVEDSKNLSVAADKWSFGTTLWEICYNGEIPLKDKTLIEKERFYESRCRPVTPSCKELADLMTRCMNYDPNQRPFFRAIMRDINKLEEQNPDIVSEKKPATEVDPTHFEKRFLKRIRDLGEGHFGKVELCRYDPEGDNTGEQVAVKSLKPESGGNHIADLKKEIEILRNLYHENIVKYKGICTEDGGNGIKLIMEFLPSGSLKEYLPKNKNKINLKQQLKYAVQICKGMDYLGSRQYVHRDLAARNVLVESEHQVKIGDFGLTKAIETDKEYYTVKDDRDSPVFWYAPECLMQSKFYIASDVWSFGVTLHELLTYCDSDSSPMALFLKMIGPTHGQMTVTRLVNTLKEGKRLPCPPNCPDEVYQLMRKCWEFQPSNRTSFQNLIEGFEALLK

[3] = target: Tyrosine-protein kinase JAK2 (Homo sapiens, UniProt O60674); experiment: Inhibition of human N-terminal His-tagged JAK2 catalytic domain (828 to 1132 residues) expressed in baculovirus infected insect cells assessed as decrease in phosphorylation of biotinylated peptide substrate after 1 hr in presence of 1 mM ATP by HTRF method
Chain of Tyrosine-protein kinase JAK2 (O60674 whole entry, the tested form may be a part): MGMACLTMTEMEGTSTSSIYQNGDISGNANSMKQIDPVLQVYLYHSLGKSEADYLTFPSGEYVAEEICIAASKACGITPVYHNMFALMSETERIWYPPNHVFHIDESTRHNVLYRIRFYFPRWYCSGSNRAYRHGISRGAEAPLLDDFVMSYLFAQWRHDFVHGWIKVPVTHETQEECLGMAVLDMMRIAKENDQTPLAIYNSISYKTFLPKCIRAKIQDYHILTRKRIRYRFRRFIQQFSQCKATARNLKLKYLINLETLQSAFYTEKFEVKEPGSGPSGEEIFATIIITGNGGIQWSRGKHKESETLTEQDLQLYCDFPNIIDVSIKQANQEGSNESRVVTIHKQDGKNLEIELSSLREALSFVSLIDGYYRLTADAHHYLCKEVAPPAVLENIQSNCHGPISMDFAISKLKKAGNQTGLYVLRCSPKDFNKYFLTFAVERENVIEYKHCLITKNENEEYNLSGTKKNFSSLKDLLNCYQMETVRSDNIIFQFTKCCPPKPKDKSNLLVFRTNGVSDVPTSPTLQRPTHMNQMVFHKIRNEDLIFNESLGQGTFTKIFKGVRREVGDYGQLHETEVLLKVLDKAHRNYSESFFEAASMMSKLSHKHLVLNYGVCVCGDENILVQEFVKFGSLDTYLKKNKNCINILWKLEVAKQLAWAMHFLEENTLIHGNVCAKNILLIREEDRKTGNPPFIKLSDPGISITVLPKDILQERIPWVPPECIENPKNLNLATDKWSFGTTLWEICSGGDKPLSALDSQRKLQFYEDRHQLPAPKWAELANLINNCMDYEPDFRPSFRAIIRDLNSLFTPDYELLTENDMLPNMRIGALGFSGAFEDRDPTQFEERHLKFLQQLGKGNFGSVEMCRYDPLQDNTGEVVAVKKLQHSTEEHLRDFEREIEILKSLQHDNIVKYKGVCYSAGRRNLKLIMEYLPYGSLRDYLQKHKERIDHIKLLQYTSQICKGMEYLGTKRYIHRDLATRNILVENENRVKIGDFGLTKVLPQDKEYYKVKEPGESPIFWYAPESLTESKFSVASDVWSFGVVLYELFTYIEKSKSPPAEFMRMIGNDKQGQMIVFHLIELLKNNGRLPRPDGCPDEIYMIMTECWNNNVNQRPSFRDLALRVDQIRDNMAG

Ratio IC50 [1] | IC50 [2] [µM] | IC50 [3] [µM] | Compound
7.1 to 24.4 | – | – | N#CCC1(n2cc(-c3ncnc4[nH]ccc34)cn2)CN(C2CCN(C(=O)OCc3cc(F)cc(F)c3)CC2)C1
59.2 | ≤ 0.005 | > 0.1 | CO[C@@H]1CN(C(=O)c2ccnc(C(F)(F)F)c2F)CC[C@@H]1N1CC(CC#N)(n2cc(-c3ncnc4[nH]ccc34)cn2)C1 (relative stereo)
10.4 to 20.3 | – | – | N#CCC1(n2cc(-c3ncnc4[nH]ccc34)cn2)CN(C2CCN(C(=O)Nc3cnccc3C(F)(F)F)CC2)C1
21.4 | 0.005 to 0.02 | > 0.1 | N#CCC1(n2cc(-c3ccnc4[nH]ccc34)cn2)CN(C2CCN(C(=O)c3ccnc(C(F)(F)F)c3F)CC2)C1
